Measurements: patent publication US20020061888A1, “Combination therapy for the prophylaxis and treatment of hyperlipidemic conditions and disorders” (priority 2000, published 2002)
Several values for one entry are separate records, joined by “and”; a condition that tells them apart may be missing. Equal entries are not always repeated. Marks after values point to notes of the source that are not given here.

Tested on: Male beagle dogs
Assay: Serum total cholesterol in beagle dogs (serum lipid measurements)
Assay type: in vivo
Settings: for SERUM TOTAL CHOLESTEROL / TOTAL SERUM CHOLESTEROL: n = 6; for decrease in serum total cholesterol concentration: compared to vehicle
Procedure: Male beagle dogs (9-10 kg) obtained from Marshall farms were fed a normal chow diet once a day for a two hour interval and given water ad libitum. Prior to initiating treatment, the dogs were weighed and blood samples were drawn from the cephalic vein of each dog following an overnight fast to evaluate pretreatment serum total cholesterol levels at the start of the study. […] All doses were administered in gelatin capsules per os to each dog between 9:00-9:30 a.m. prior to feeding. All animals were fed between 9:30-10:00 a.m. and were allowed two hours to eat, at which time any remaining food was removed. […] Animals were dosed daily for three weeks and blood samples were taken at the end of each week after an overnight fast for comparison with pretreatment serum total cholesterol levels. Three consecutive 24 hour fecal samples were collected for each group during the last 72 hours of each week and used to measure the concentration of fecal biles acids excreted during that time period.
Blood was collected from the cephalic vein of each dog into serum separator tubes. The blood was centrifuged at 900×g for 20 minutes at room temperature and the serum decanted. All analyses were performed on a Cobas Mira Clinical Analyzer System (Roche Diagnostic Systems, Branchburg, N.J.) using Roche Diagnostic reagents for enzymatic determinations of serum cholesterol. Commercial calibrator and quality control materials were analyzed with each run to verify assay accuracy and precision. A two-tailed, paired Students t-test was used to determine the statistical significance of changes in serum total cholesterol in treated dogs compared to pretreatment values. A one-way analysis of variance (“ANOVA”) was used to compare each pair of treatment groups to determine the statistical significance of changes in serum total cholesterol.
Beagle dogs also were administered pravastatin to evaluate the monotherapeutic effect of pravastatin on serum total cholesterol.
Male beagle dogs (9-10 kg) obtained from Marshall farms were fed once a day for two hours and given water ad libitum. Prior to initiating treatment, blood samples were drawn from the cephalic vein of each dog to evaluate pretreatment total serum cholesterol levels at the start of the study.
For the dose ranging study, the dogs were assigned to one of five groups based on mean body weights and serum total cholesterol levels. Each group received one of the following dosages: (1) vehicle (empty capsule, afternoon dosing), (2) 3.0 mg/kg/day pravastatin (afternoon dosing), (3) 10 mg/kg/day pravastatin (afternoon dosing), (4) 30 mg/kg/day pravastatin (afternoon dosing), and (5) 10 mg/kg/day pravastatin (morning dosing). One capsule containing pravastatin was administered per os to each dog between 9:00-9:30 a.m. prior to feeding for the 10 mg/kg/day morning dosing group and between 2:30-3:00 p.m. for the afternoon dosing groups. All animals were fed between 9:30-10:00 a.m. and were allowed two hours to eat, at which time any remaining food was removed. […] Animals were dosed daily for four weeks and blood samples were taken at the end of each week after an overnight fast for comparison with pretreatment serum total cholesterol levels.
Following this initial four week dose-ranging study, dogs from the two groups receiving 10 mg/kg/day pravastatin (a.m. and p.m. dosing groups) were randomized into two new treatment groups based on serum total cholesterol levels to initiate the combination treatment study. […] Dosing continued in this manner for an additional four weeks (Weeks 5-8) with blood and 48-hour fecal samples collected at the end of each week for serum lipid measurements and fecal bile acid determinations, respectively.

SMILES: CCCCC1(CC)CS(=O)(=O)c2ccc(N(C)C)cc2[C@@H](c2cccc(OCc3ccc(C[N+]45CCN(CC4)CC5)cc3)c2)[C@H]1O.[Cl-] (stereo partly drawn) [Compound A-5]
- % change in serum total cholesterol compared to the pretreatment value of each group (compound A-5 0.22 mg/kg/day per os, Week 1): (−9) %
- SERUM TOTAL CHOLESTEROL (compound A-5 0.22 mg/kg/day per os, Week 1, mean ± SEM): 140 ± 10^3 mg/dL
- % change in serum total cholesterol compared to the pretreatment value of each group (compound A-5 0.22 mg/kg/day per os, Week 2): (−7) %
- SERUM TOTAL CHOLESTEROL (compound A-5 0.22 mg/kg/day per os, Week 2, mean ± SEM): 143 ± 11 mg/dL
- % change in serum total cholesterol compared to the pretreatment value of each group (compound A-5 0.22 mg/kg/day per os, Week 3): (−10) %
- SERUM TOTAL CHOLESTEROL (compound A-5 0.22 mg/kg/day per os, Week 3, mean ± SEM): 138 ± 11^3 mg/dL
- decrease in serum total cholesterol concentration (compound A-5 0.22 mg/kg/day, one week of treatment): 9%
- decrease in serum total cholesterol concentration (compound A-5 0.22 mg/kg/day, three weeks of treatment): 10%
- % change in serum total cholesterol compared to the pretreatment value of each group (compound A-5 0.66 mg/kg/day per os, Week 1): (−7) %
- SERUM TOTAL CHOLESTEROL (compound A-5 0.66 mg/kg/day per os, Week 1, mean ± SEM): 145 ± 9 mg/dL
- % change in serum total cholesterol compared to the pretreatment value of each group (compound A-5 0.66 mg/kg/day per os, Week 2): (−4) %
- SERUM TOTAL CHOLESTEROL (compound A-5 0.66 mg/kg/day per os, Week 2, mean ± SEM): 149 ± 8 mg/dL
- % change in serum total cholesterol compared to the pretreatment value of each group (compound A-5 0.66 mg/kg/day per os, Week 3): (−6) %
- SERUM TOTAL CHOLESTEROL (compound A-5 0.66 mg/kg/day per os, Week 3, mean ± SEM): 146 ± 8 mg/dL
- decrease in serum total cholesterol concentration (compound A-5 0.66 mg/kg/day, one week of treatment): 7%
- decrease in serum total cholesterol concentration (compound A-5 0.66 mg/kg/day, three weeks of treatment): 6%
- % change in serum total cholesterol compared to the pretreatment value of each group (compound A-5 2.0 mg/kg/day per os, Week 1): (−12) %
- SERUM TOTAL CHOLESTEROL (compound A-5 2.0 mg/kg/day per os, Week 1, mean ± SEM): 137 ± 10^3 mg/dL
- % change in serum total cholesterol compared to the pretreatment value of each group (compound A-5 2.0 mg/kg/day per os, Week 2): (−15) %
- SERUM TOTAL CHOLESTEROL (compound A-5 2.0 mg/kg/day per os, Week 2, mean ± SEM): 133 ± 11^3 mg/dL
- % change in serum total cholesterol compared to the pretreatment value of each group (compound A-5 2.0 mg/kg/day per os, Week 3): (−13) %
- SERUM TOTAL CHOLESTEROL (compound A-5 2.0 mg/kg/day per os, Week 3, mean ± SEM): 136 ± 10^3 mg/dL
- decrease in serum total cholesterol concentration (compound A-5 2.0 mg/kg/day, one week of treatment): 12%
- decrease in serum total cholesterol concentration (compound A-5 2.0 mg/kg/day, three weeks of treatment): 13%
- decrease in serum total cholesterol compared to the initial value at Week 0 (compound A-5 4 mg/kg/day for four weeks (beginning after Week 4), Week 8): 23%
- % change in serum total cholesterol compared to the pretreatment value of each group (compound A-5 6.0 mg/kg/day per os, Week 1): (−19) %
- SERUM TOTAL CHOLESTEROL (compound A-5 6.0 mg/kg/day per os, Week 1, mean ± SEM): 128 ± 11^3 mg/dL
- % change in serum total cholesterol compared to the pretreatment value of each group (compound A-5 6.0 mg/kg/day per os, Week 2): (−22) %
- SERUM TOTAL CHOLESTEROL (compound A-5 6.0 mg/kg/day per os, Week 2, mean ± SEM): 124 ± 11^3 mg/dL
- % change in serum total cholesterol compared to the pretreatment value of each group (compound A-5 6.0 mg/kg/day per os, Week 3): (−24) %
- SERUM TOTAL CHOLESTEROL (compound A-5 6.0 mg/kg/day per os, Week 3, mean ± SEM): 120 ± 11^3 mg/dL
- decrease in serum total cholesterol concentration (compound A-5 6.0 mg/kg/day, one week of treatment): 19%
- decrease in serum total cholesterol concentration (compound A-5 6.0 mg/kg/day, three weeks of treatment): 24%
- % change from Week 0 in total serum cholesterol (compound A-5 monotherapy 4.0 mg/kg/day, dosed Weeks 5-8, Week 5): (−12) %
- TOTAL SERUM CHOLESTEROL (compound A-5 monotherapy 4.0 mg/kg/day, dosed Weeks 5-8, Week 5, mean ± SEM): 123 ± 9 mg/dL
- % change from Week 0 in total serum cholesterol (compound A-5 monotherapy 4.0 mg/kg/day, dosed Weeks 5-8, Week 6): (−18) %
- TOTAL SERUM CHOLESTEROL (compound A-5 monotherapy 4.0 mg/kg/day, dosed Weeks 5-8, Week 6, mean ± SEM): 115 ± 8 [a] mg/dL
- % change from Week 0 in total serum cholesterol (compound A-5 monotherapy 4.0 mg/kg/day, dosed Weeks 5-8, Week 7): (−18) %
- TOTAL SERUM CHOLESTEROL (compound A-5 monotherapy 4.0 mg/kg/day, dosed Weeks 5-8, Week 7, mean ± SEM): 114 ± 6 [a] mg/dL
- % change from Week 0 in total serum cholesterol (compound A-5 monotherapy 4.0 mg/kg/day, dosed Weeks 5-8, Week 8): (−23) %
- TOTAL SERUM CHOLESTEROL (compound A-5 monotherapy 4.0 mg/kg/day, dosed Weeks 5-8, Week 8, mean ± SEM): 107 ±7 mg/dL and 107 ± 7 [a] mg/dL
- % change from Week 0 in total serum cholesterol (compound A-5 monotherapy group, dosing terminated after Week 8, Week 9): (−5) %
- TOTAL SERUM CHOLESTEROL (compound A-5 monotherapy group, dosing terminated after Week 8, Week 9, mean ± SEM): 132 ± 7 mg/dL
- % change from Week 0 in total serum cholesterol (compound A-5 monotherapy group, dosing terminated after Week 8, Week 10): (−4) %
- TOTAL SERUM CHOLESTEROL (compound A-5 monotherapy group, dosing terminated after Week 8, Week 10, mean ± SEM): 133 ± 10 mg/dL
- % change from Week 0 in total serum cholesterol (compound A-5 monotherapy group, dosing terminated after Week 8, Week 11): (−5) %
- TOTAL SERUM CHOLESTEROL (compound A-5 monotherapy group, dosing terminated after Week 8, Week 11, mean ± SEM): 132 ± 9 mg/dL
- % change from Week 0 in total serum cholesterol (compound A-5 monotherapy group, dosing terminated after Week 8, Week 12): (−2) %
- TOTAL SERUM CHOLESTEROL (compound A-5 monotherapy group, dosing terminated after Week 8, Week 12, mean ± SEM): 136 ± 9 mg/dL
- % change from Week 0 in total serum cholesterol (compound A-5 monotherapy group, dosing terminated after Week 8, Week 13): (−14) %
- TOTAL SERUM CHOLESTEROL (compound A-5 monotherapy group, dosing terminated after Week 8, Week 13, mean ± SEM): 137 ± 9 mg/dL
